Laboratory results taken from the NIST ThermoML archive (doi:10.1016/j.tca.2006.04.001).

Conditions: Liquid, Pycnometric method

CCCCCCCCCCCCCCCCCCCCC [heneicosane]
Conditions | specific volume [m3/kg]
313.65 K | 0.001285
315.75 K | 0.001283
317.65 K | 0.001286
319.65 K | 0.001288
321.55 K | 0.001289
323.55 K | 0.001291
325.45 K | 0.001294
327.45 K | 0.001296
329.35 K | 0.001299
331.25 K | 0.001302
333.25 K | 0.001302
335.15 K | 0.001304
337.15 K | 0.001307
339.05 K | 0.001309
341.05 K | 0.00131
342.95 K | 0.001313
344.85 K | 0.001315
346.85 K | 0.001317
348.75 K | 0.001321
350.75 K | 0.001324
352.65 K | 0.001325
354.65 K | 0.001329
354.85 K | 0.001329
356.55 K | 0.001331
358.45 K | 0.001333
360.45 K | 0.001335
362.35 K | 0.001337
364.35 K | 0.00134
366.25 K | 0.001342
368.15 K | 0.001344
370.15 K | 0.001349
372.05 K | 0.00135
374.05 K | 0.001354
375.45 K | 0.001353
375.95 K | 0.001354
377.95 K | 0.001358
379.85 K | 0.001361
381.75 K | 0.001362
383.75 K | 0.001366
385.65 K | 0.001367
387.65 K | 0.001369
389.55 K | 0.001373
391.55 K | 0.001373
393.45 K | 0.001377
395.35 K | 0.00138
396.05 K | 0.00138
397.35 K | 0.001381
399.25 K | 0.001386
401.25 K | 0.001384
403.15 K | 0.001387
405.15 K | 0.001392
407.05 K | 0.001394
408.95 K | 0.001396
410.95 K | 0.001401
412.85 K | 0.001401
414.85 K | 0.001404
416.65 K | 0.001408
416.75 K | 0.001409
418.65 K | 0.00141
420.65 K | 0.001411
422.55 K | 0.001417
424.55 K | 0.001419
426.45 K | 0.001421
428.45 K | 0.001423
430.35 K | 0.001426
432.25 K | 0.001432
434.25 K | 0.001432
436.15 K | 0.001436
437.25 K | 0.001437
438.15 K | 0.001437
440.05 K | 0.001443
442.05 K | 0.001444
443.95 K | 0.001448
445.85 K | 0.00145
447.85 K | 0.001454
449.75 K | 0.001455
451.75 K | 0.001458
453.65 K | 0.00146
455.65 K | 0.001464
457.55 K | 0.001467
457.85 K | 0.001468
459.45 K | 0.00147
461.45 K | 0.001471
463.35 K | 0.001476
465.35 K | 0.001479
467.25 K | 0.001484
469.15 K | 0.001485
471.15 K | 0.001489
473.05 K | 0.001491
475.05 K | 0.001492
476.95 K | 0.001497
478.45 K | 0.001498
478.95 K | 0.001502
480.85 K | 0.001503
482.75 K | 0.001505
484.75 K | 0.001511
486.65 K | 0.001513
488.65 K | 0.001516
488.75 K | 0.001517
490.55 K | 0.001519
492.55 K | 0.001521
494.45 K | 0.001523
496.35 K | 0.00153
498.35 K | 0.001531
500.25 K | 0.001537
502.25 K | 0.001536
504.15 K | 0.001543
506.15 K | 0.001544
508.05 K | 0.00155
509.95 K | 0.001551
511.95 K | 0.001554
513.85 K | 0.001559
515.85 K | 0.001564
517.75 K | 0.001567
519.65 K | 0.001569
521.65 K | 0.001575
523.55 K | 0.001575
525.55 K | 0.001582
527.45 K | 0.001586
529.45 K | 0.001588
531.35 K | 0.001588
533.25 K | 0.001596
535.25 K | 0.0016
537.15 K | 0.001603
539.15 K | 0.001606
541.05 K | 0.001612
543.05 K | 0.001614
544.95 K | 0.001617
546.85 K | 0.001621
548.85 K | 0.001626
550.75 K | 0.001626
552.75 K | 0.001634
554.65 K | 0.001635
556.65 K | 0.001639
558.55 K | 0.001643
560.45 K | 0.001648
562.45 K | 0.00165
564.35 K | 0.001657
566.35 K | 0.001659

CCCCCCCCCCCCCCCC [hexadecane]
Conditions | specific volume [m3/kg]
298 K | 0.001313
323 K | 0.001344
348 K | 0.001376
373 K | 0.001411
398 K | 0.001447
423 K | 0.001486
448 K | 0.001529
473 K | 0.001575
498 K | 0.001626
523 K | 0.001682
548 K | 0.001744
573 K | 0.001811
